Laboratory results taken from PubChem BioAssay AID330 (DTP/NCI, 2004).
Values joined by “and” are separate entries in the source; they are usually repeats but may differ in a detail not shown here. Equal values may be shown once. Inconclusive results and toxic doses are left out.

System: P388 leukemia ip, CD2F1 mice, survival T/C
Assay: NCI In Vivo Anticancer Drug Screen. Data for tumor model P388 Leukemia (intraperitoneal) in CD2F1 (CDF1) mice
Conditions: endpoint: median survival time, higher = longer survival
Procedure, shortened: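 Mice carrying the transplanted tumor received test compound or vehicle. Survival was recorded in each group, and the value is the treated-group measurement divided by that of the vehicle-treated control group.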

[1] = dose: 50.0 mg/kg/injection, schedule: Q01DX009 (ip), vehicle: saline with Tween-80
[2] = dose: 100.0 mg/kg/injection, schedule: Q01DX009 (ip), vehicle: saline with Tween-80
[3] = dose: 200.0 mg/kg/injection, schedule: Q01DX009 (ip), vehicle: saline with Tween-80
[4] = dose: 25.0 mg/kg/injection, schedule: Q01DX005 (ip), vehicle: Klucel (hydroxypropylcellulose) (HPC)
[5] = dose: 50.0 mg/kg/injection, schedule: Q01DX005 (ip), vehicle: Klucel (hydroxypropylcellulose) (HPC)
[6] = dose: 100.0 mg/kg/injection, schedule: Q01DX005 (ip), vehicle: Klucel (hydroxypropylcellulose) (HPC)
[7] = dose: 200.0 mg/kg/injection, schedule: Q01DX005 (ip), vehicle: Klucel (hydroxypropylcellulose) (HPC)
[8] = dose: 60.0 mg/kg/injection, schedule: Q01DX005 (ip), vehicle: saline with Tween-80
[9] = dose: 120.0 mg/kg/injection, schedule: Q01DX005 (ip), vehicle: saline with Tween-80
[10] = dose: 240.0 mg/kg/injection, schedule: Q01DX005 (ip), vehicle: saline with Tween-80
[11] = dose: 50.0 mg/kg/injection, schedule: Q01DX009 (ip), vehicle: Klucel (hydroxypropylcellulose) (HPC)
[12] = dose: 100.0 mg/kg/injection, schedule: Q01DX009 (ip), vehicle: Klucel (hydroxypropylcellulose) (HPC)
[13] = dose: 200.0 mg/kg/injection, schedule: Q01DX009 (ip), vehicle: Klucel (hydroxypropylcellulose) (HPC)
[14] = dose: 50.0 mg/kg/injection, schedule: Q01DX005 (ip), vehicle: saline with Tween-80
[15] = dose: 100.0 mg/kg/injection, schedule: Q01DX005 (ip), vehicle: saline with Tween-80
[16] = dose: 200.0 mg/kg/injection, schedule: Q01DX005 (ip), vehicle: saline with Tween-80
[17] = dose: 60.0 mg/kg/injection, schedule: Q01DX005 (ip), vehicle: saline
[18] = dose: 120.0 mg/kg/injection, schedule: Q01DX005 (ip), vehicle: saline
[19] = dose: 240.0 mg/kg/injection, schedule: Q01DX005 (ip), vehicle: saline

For COc1ccc(C(O)Cc2cc(OC)c(OC)c(OC)c2)cc1O (stereo unspecified), the T/C (dose: 31.25 mg/kg/injection, schedule: Q01DX009 (ip), vehicle: saline + Tween-80 + alcohol) was 105 % of control, the T/C (dose: 62.5 mg/kg/injection, schedule: Q01DX009 (ip), vehicle: saline + Tween-80 + alcohol) was 98 % of control and the T/C (dose: 125.0 mg/kg/injection, schedule: Q01DX009 (ip), vehicle: saline + Tween-80 + alcohol) was 89 % of control. For the same molecule, the T/C (dose: 250.0 mg/kg/injection, schedule: Q01DX009 (ip), vehicle: saline + Tween-80 + alcohol) was 91 % of control.
CC(=O)Nc1cc([N+]#N)ccc1S(=O)(=O)O was tested, and the T/C [1] was 109 % of control, the T/C [2] was 93 % of control and the T/C [3] was 89 % of control.
In the case of CC(Cc1nc2ccccc2[nH]1)Cc1nc2ccccc2[nH]1, the T/C [4] is reported as 100 % of control, the T/C [5] is reported as 99 % of control and the T/C [6] is reported as 92 % of control. For the same molecule, the T/C [7] was 91 % of control.
In the case of c1ccc(Nc2nn[nH]n2)cc1, the T/C [5] is reported as 109 % of control, the T/C [6] is reported as 107 % of control and the T/C [7] is reported as 109 % of control.
In the case of C/C=C\c1noc2c1C(=O)OC(C)C2 (stereo unspecified), the T/C [8] is reported as 104 % of control, the T/C [9] is reported as 96 % of control and the T/C [10] is reported as 103 % of control.
In the case of Oc1c(Cl)cc(Cl)cc1C1CC(c2ccccc2Cl)=NN1c1ccccc1 (stereo unspecified), the T/C [1] is reported as 96 % of control, the T/C [2] is reported as 95 % of control and the T/C [3] is reported as 97 % of control.
For O=C(N1CCN(C(=O)S(=O)(=O)c2ccccc2)CC1)S(=O)(=O)c1ccccc1, the T/C [11] was 92 % of control, the T/C [12] was 100 % of control and the T/C [13] was 100 % of control.
With Cc1ccc(C(=O)CC(O)(C(F)(F)F)C(F)(F)F)cc1 the T/C (dose: 100.0 mg/kg/injection, schedule: Q04DX003 (ip), vehicle: other) was 100 % of control, the T/C (dose: 200.0 mg/kg/injection, schedule: Q04DX003 (ip), vehicle: other) was 118 % of control and the T/C (dose: 400.0 mg/kg/injection, schedule: Q04DX003 (ip), vehicle: other) was 122 % of control.
Nc1nc(Br)c2ncn(C3OC(CO)C(O)C3O)c2n1 (stereo unspecified) was tested, and the T/C [14] was 101 % of control, the T/C [15] was 101 % of control and the T/C [16] was 94 % of control.
In the case of O=C(O)c1ccccc1-c1ccc2ccccc2c1, the T/C [14] is reported as 94 % of control, the T/C [15] is reported as 105 % of control and the T/C [16] is reported as 110 % of control.
For CN1N=C(c2ccccc2)N=P12N=C(c1ccccc1)NN2C (stereo unspecified), the T/C [17] was 94 % of control, the T/C [18] was 102 % of control and the T/C [19] was 103 % of control.
With COC(=O)C1=CN(C(C)=O)C=C(C(=O)OC)C1c1ccccc1 the T/C [14] was 102 % of control, the T/C [15] was 93 % of control and the T/C [16] was 92 % of control.
CCCOC1=NC2=NC(N3CCCC3)=NC3=C(Cl)C=C(Cl)C(=N1)N23 was tested, and the T/C (dose: 25.0 mg/kg/injection, schedule: Q04DX002 (ip), vehicle: Klucel + Tween-80) was 94 % of control, the T/C (dose: 50.0 mg/kg/injection, schedule: Q04DX002 (ip), vehicle: Klucel + Tween-80) was 87 % of control and the T/C (dose: 100.0 mg/kg/injection, schedule: Q04DX002 (ip), vehicle: Klucel + Tween-80) was 116 % of control and 86 % of control.
CCC(=O)NN1C(=O)c2ccccc2C1=O was tested, and the T/C [8] was 103 % of control, the T/C [9] was 104 % of control and the T/C [10] was 99 % of control.
For CC(N)C(=O)NC(Cc1ccccc1)C(=O)O (stereo unspecified), the T/C (dose: 50.0 mg/kg/injection, schedule: Q01DX005 (ip), vehicle: saline) was 101 % of control, the T/C (dose: 100.0 mg/kg/injection, schedule: Q01DX005 (ip), vehicle: saline) was 105 % of control and the T/C (dose: 200.0 mg/kg/injection, schedule: Q01DX005 (ip), vehicle: saline) was 105 % of control.
COc1ccc2nc3cc(Cl)ccc3c(NCCCNCCCCNCCCNc3c4ccc(Cl)cc4nc4ccc(OC)cc34)c2c1 was tested, and the T/C (dose: 0.62 mg/kg/injection, schedule: Q01DX009 (ip), vehicle: other) was 106 % of control, the T/C (dose: 1.25 mg/kg/injection, schedule: Q01DX009 (ip), vehicle: other) was 110 % of control and the T/C (dose: 2.5 mg/kg/injection, schedule: Q01DX009 (ip), vehicle: other) was 119 % of control.
In the case of C[C@H](C(O)CC(=O)C(C)(C)O)[C@H]1CC[C@@]2(C)[C@@H]3CC[C@H]4C(C)(C)[C@@H](OC5OC(COC6OC(CO)C(O)C(O)C6O)C(O)C(O)C5O)CC[C@]4(C)C3=CC[C@]12C (stereo partly specified), the T/C (dose: 9.25 mg/kg/injection, schedule: Q01DX005 (ip), vehicle: saline) is reported as 100 % of control, the T/C (dose: 18.5 mg/kg/injection, schedule: Q01DX005 (ip), vehicle: saline) is reported as 100 % of control and the T/C (dose: 37.0 mg/kg/injection, schedule: Q01DX005 (ip), vehicle: saline) is reported as 112 % of control. For the same molecule, the T/C (dose: 74.0 mg/kg/injection, schedule: Q01DX005 (ip), vehicle: saline) was 105 % of control.
In the case of NC(=O)c1cncn1C1OCC(O)C(O)C1O (stereo unspecified), the T/C [17] is reported as 96 % of control, the T/C [18] is reported as 94 % of control and the T/C [19] is reported as 91 % of control.
For O=[N+]([O-])/C(=C/c1ccccc1)c1ccccc1, the T/C (dose: 6.25 mg/kg/injection, schedule: Q01DX009 (ip), vehicle: saline with Tween-80) was 109 % of control, the T/C (dose: 6.25 mg/kg/injection, schedule: Q04DX003 (ip), vehicle: saline with Tween-80) was 109 % of control and the T/C (dose: 12.5 mg/kg/injection, schedule: Q01DX009 (ip), vehicle: saline with Tween-80) was 118 % of control. For the same molecule, the T/C (dose: 12.5 mg/kg/injection, schedule: Q04DX003 (ip), vehicle: saline with Tween-80) was 100 % of control, the T/C (dose: 25.0 mg/kg/injection, schedule: Q01DX009 (ip), vehicle: saline with Tween-80) was 118 % of control and the T/C (dose: 25.0 mg/kg/injection, schedule: Q04DX003 (ip), vehicle: saline with Tween-80) was 113 % of control.
With C/C(=N\NC(=S)Nc1ccc(C(=O)O)cc1C)c1ccccn1 the T/C [14] was 114 % of control and the T/C [15] was 121 % of control.
With Cc1ccccc1N=C(N)Nc1ccccc1C the T/C (dose: 2.5 mg/kg/injection, schedule: Q01DX009 (ip), vehicle: saline with Tween-80) was 95 % of control, the T/C (dose: 5.0 mg/kg/injection, schedule: Q01DX009 (ip), vehicle: saline with Tween-80) was 100 % of control and the T/C (dose: 10.0 mg/kg/injection, schedule: Q01DX009 (ip), vehicle: saline with Tween-80) was 100 % of control.
For O=c1c2ccccc2sc2c1c(N(CCCl)CCCl)cc1ccccc12, the T/C (dose: 25.0 mg/kg/injection, schedule: Q01DX005 (ip), vehicle: distilled water + Tween-80) was 92 % of control, the T/C (dose: 50.0 mg/kg/injection, schedule: Q01DX005 (ip), vehicle: distilled water + Tween-80) was 94 % of control and the T/C (dose: 100.0 mg/kg/injection, schedule: Q01DX005 (ip), vehicle: distilled water + Tween-80) was 94 % of control. The T/C (dose: 200.0 mg/kg/injection, schedule: Q01DX005 (ip), vehicle: distilled water + Tween-80) was 95 % of control.
Cc1c(-c2ccc(C3CCCCC3)cc2)nc2ccc(F)cc2c1C(=O)O was tested, and the T/C (dose: 3.12 mg/kg/injection, schedule: Q01DX005 (ip), vehicle: Klucel (hydroxypropylcellulose) (HPC)) was 104 % of control, the T/C (dose: 6.25 mg/kg/injection, schedule: Q01DX005 (ip), vehicle: Klucel (hydroxypropylcellulose) (HPC)) was 99 % of control and the T/C (dose: 12.5 mg/kg/injection, schedule: Q01DX005 (ip), vehicle: Klucel (hydroxypropylcellulose) (HPC)) was 110 % of control. The T/C [4] was 99 % of control.
CSc1nc(N)c(C(=O)NC2CCCCC2)s1 was tested, and the T/C [11] was 100 % of control, the T/C [12] was 100 % of control and the T/C [13] was 99 % of control.
With COc1cc2c(C)c3ccccc3c(C)c2c2ccccc12 the T/C (dose: 100.0 mg/kg/injection, schedule: Q01DX001 (ip), vehicle: Klucel (hydroxypropylcellulose) (HPC)) was 101 % of control, the T/C (dose: 200.0 mg/kg/injection, schedule: Q01DX001 (ip), vehicle: Klucel (hydroxypropylcellulose) (HPC)) was 110 % of control and the T/C (dose: 400.0 mg/kg/injection, schedule: Q01DX001 (ip), vehicle: Klucel (hydroxypropylcellulose) (HPC)) was 105 % of control.
COc1cccc2c1C(=O)c1c(O)c3c(c(O)c1C2=O)C[C@@](O)(C(C)O)C[C@@H]3OC1CC(NC(=O)C(F)(F)F)C(O)C(C)O1 (stereo partly specified) was tested, and the T/C (dose: 1.56 mg/kg/injection, schedule: Q01DX009 (ip), vehicle: water) was 118 % of control, the T/C (dose: 6.25 mg/kg/injection, schedule: Q01DX009 (ip), vehicle: water) was 150 % of control and the T/C (dose: 12.5 mg/kg/injection, schedule: Q01DX009 (ip), vehicle: water) was 156 % of control and 169 % of control. The T/C (dose: 25.0 mg/kg/injection, schedule: Q01DX009 (ip), vehicle: water) was 181 % of control and 189 % of control.
